Patent publication US7495104B2, “Quinoline or quinazoline derivatives inhibiting auto-phosphorylation of fibroblast growth factor receptors” (Kirin Beer Kabushiki Kaisha, priority 2001, dated 2009)
Where a name gives a salt, the structure may show the parent alone.

target: Bek (Homo sapiens, UniProt P21802); assay: Inhibitory activity against Bek-autophosphorylation using ELISA method in OCUM-2MD3 cells; format: cell-based; settings: 1 hr with compound, read-out: IC50 (concentration necessary for inhibiting 50% of Bek-phosphorylation)
Sequence (P21802 431-767 limits assumed): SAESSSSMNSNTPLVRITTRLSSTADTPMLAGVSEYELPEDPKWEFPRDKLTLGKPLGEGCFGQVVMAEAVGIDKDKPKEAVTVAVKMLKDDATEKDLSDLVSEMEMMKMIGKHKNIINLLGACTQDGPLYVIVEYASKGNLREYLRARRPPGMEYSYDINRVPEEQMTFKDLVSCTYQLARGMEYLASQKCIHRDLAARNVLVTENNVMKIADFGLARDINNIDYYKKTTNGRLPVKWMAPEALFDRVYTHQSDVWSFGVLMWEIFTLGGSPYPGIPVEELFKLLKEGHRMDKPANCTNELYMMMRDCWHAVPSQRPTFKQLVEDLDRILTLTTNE
Method in brief: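 Sandwich ELISA (anti-phosphotyrosine capture, anti-Bek detection, peroxidase, 450 nm) measured Bek autophosphorylation in OCUM-2MD3 lysates after 1 hr compound treatment at 37° C in 0.1% serum medium. IC50 derived by scaling between no-drug (100%) and excess positive control at 1000 nM (0%).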

IC50 [nM]	Compound
12.6	COc1cc2c(Oc3ccc(NC(=O)NCCC(C)(C)C)cc3)ccnc2cc1OCCCN1CCC(N2CCCCC2)CC1 [Compound 248, 1-{4-[7-(3-[1,4′]Bipiperidinyl-1′-yl-propoxy)-6-methoxy-quinolin-4-yloxy]-phenyl}-3-(3,3-dimethyl-butyl)-urea]
2360	COc1cc2c(Oc3ccc(Nc4ccc(C(C)(C)C)cc4)c(Cl)c3)ccnc2cc1OCCN1CCC(CCO)CC1 [Compound 293, 2-[1-(2-{4-[4-(4-Tert-butyl-phenylamino)-3-chloro-phenoxy]-6-methoxy-quinolin-7-yloxy}-ethyl)-piperidin-4-yl]-ethanol]
204	COc1cc2c(Oc3ccc(Nc4ccc(C(C)(C)C)cc4)cc3Cl)ccnc2cc1OCCN1CCC(CO)CC1 [Compound 308, [1-(2-{4-[4-(4-Tert-butyl-phenylamino)-2-chloro-phenoxy]-6-methoxy-quinolin-7-yloxy}-ethyl)-piperidin-4-yl]-methanol]
< 10	COc1cc2c(Oc3ccc(NC(=O)NCCC(C)(C)C)cc3)ccnc2cc1OCCCN1CCC(O)CC1 [Compound 96, 1-(3,3-Dimethyl-butyl)-3-(4-{7-[3-(4-hydroxy-piperidin-1-yl)-propoxy]-6-methoxy-quinolin-4-yloxy}-phenyl)-urea]
240	COc1cc2c(Oc3ccc(Nc4ccc(C(C)(C)C)cc4)cc3)ccnc2cc1OCCN1CCCN(C)CC1 [Compound 45, (4-Tert-butylphenyl)-(4-{6-methoxy-7-[2-(4-methyl-[1,4]diazepin-1-yl)ethoxy]quinolin-4-yloxy}phenyl)amine]
9.5	COc1cc2c(Oc3ccc(NC(=O)NCCC(C)(C)C)c(Cl)c3)ccnc2cc1OCCCN1CCOCC1 [Compound 182, 1-{2-Chloro-4-[6-methoxy-7-(3-morpholin-4-yl-propoxy)-quinolin-4-yloxy]-phenyl}-3-(3,3-dimethyl-butyl)-urea]
254	COc1cc2c(Oc3ccc(NC(=O)NCCC(C)(C)C)cc3)ccnc2cc1OCCNC1(CO)CCCC1 [Compound 359, 1-(3,3-Dimethyl-butyl)-3-(4-{7-[2-(1-hydroxymethyl-cyclopenthylamino)-ethoxy]-6-methoxy-quinolin-4-yloxy}-phenyl)-urea]
33.9	COc1cc2c(Oc3ccc(Nc4ccc(C(C)(C)C)cc4)cc3)ccnc2cc1OCCN(C)CCO [Compound 49, 2-[(2-{4-[4-(4-Tert-butyl-phenylamino)phenoxy]-6-methoxy-quinolin-7-yloxy}ethyl)methylamino]ethanol]
< 10	COc1cc2nccc(Oc3ccc(NC(=O)NC4CCCC(C)(C)C4)c(F)c3)c2cc1OC (stereo not drawn) [Compound 109, 1-[4-(6,7-Dimethoxy-quinolin-4-yloxy)-2-fluoro-phenyl]-3-(3,3-dimethyl-cyclohexyl)-urea]
29.9	COc1cc2c(Oc3ccc(NC(=O)NCCC(C)(C)C)c(Cl)c3)ccnc2cc1OCCCN1CCCN(C)CC1 [Compound 188, 1-(2-Chloro-4-{6-methoxy-7-[3-(4-methyl-[1,4]diazepan-1-yl)-propoxy]-quinolin-4-yloxy}-phenyl)-3-(3,3-dimethyl-butyl)-urea]
19.7	COc1cc2c(Oc3ccc(NC(=O)NCCC(C)(C)C)c(Cl)c3)ccnc2cc1OCC(O)CN1CCCCCC1 (stereo not drawn) [Compound 194, 1-{4-[7-(3-Azepan-1-yl-2-hydroxy-propoxy)-6-methoxy-quinolin-4-yloxy]-2-chloro-phenyl}-3-(3,3-dimethyl-butyl)-urea]
143	COc1cc2c(Oc3ccc(Nc4ccc(C(C)(C)C)cc4)cc3)ccnc2cc1OCC(O)CN1CCOCC1 (stereo not drawn) [Compound 59, 1-{4-[4-(4-Tert-butyl-phenylamino)phenoxy]-6-methoxyquinolin-7-yloxy}-3-morpholin-4-ylpropan-2-ol]
202	COc1cc2nccc(Oc3ccc(NC(=O)NC(C)(C)CC(C)(C)C)c(Cl)c3)c2cc1OC [Compound 144, 1-[2-Chloro-4-(6,7-dimethoxy-quinolin-4-yloxy)-phenyl]-3-(1,1,3,3-tetramethyl-butyl)-urea]
9.1	COc1cc2c(Oc3ccc(NC(=O)NCCC(C)(C)C)c(Cl)c3)ccnc2cc1OCC(O)CN1CCCC1 (stereo not drawn) [Compound 192, 1-{2-Chloro-4-[7-(2-hydroxy-3-pyrrolidin-1-yl-propoxy)-6-methoxy-quinolin-4-yloxy]-phenyl}-3-(3,3-dimethyl-butyl)-urea]
347	COc1cc2nccc(Oc3ccc(Nc4ccc(C(C)(C)C)cc4)cc3)c2cc1OCCNCCO [Compound 356, 2-(2-{4-[4-(4-Tert-butyl-phenylamino)-phenoxy]-7-methoxy-quinolin-6-yloxy}-ethylamino)-ethanol]
162	COc1cc2c(Oc3ccc(NC(=O)NCCC(C)(C)C)c(F)c3)ccnc2cc1OCCN1C(C)CCCC1C (stereo not drawn) [Compound 130, 1-(3,3-Dimethyl-butyl)-3-(4-{7-[2-(2,6-dimethyl-piperidin-1-yl)-ethoxy]-6-methoxy-quinolin-4-yloxy}-2-fluoro-phenyl)-urea]
23.5	COc1cc2c(Oc3ccc(NC(=O)NCCC(C)(C)C)c(Cl)c3)ccnc2cc1OCCCl [Compound 160, 1-{2-Chloro-4-[7-(2-chloro-ethoxy)-6-methoxy-quinolin-4-yloxy]-phenyl}-3-(3,3-dimethyl-butyl)-urea]
230	COc1cc2c(Oc3ccc(Nc4ccc(C(C)(C)C)cc4)cc3)ccnc2cc1OCCCN(C)C [Compound 46, N1-[4-(Tert-butyl)phenyl]-4-({7-[3-(dimethylamino)propoxy]-6-methoxy-4-quinolyl}oxy)aniline]
521	COc1cc2ncnc(Oc3ccc(Nc4ccc(C(C)(C)C)cc4)cc3)c2cc1OC [Compound 74, (4-Tert-butylphenyl)-[4-(6,7-dimethoxyquinazolin-4-yloxy)-phenyl]amine]
313	COc1cc2nccc(Oc3ccc(Nc4ccc(C(C)C)cc4)cc3)c2cc1OC [Compound 9, [4-(6,7-Dimethoxyquinolin-4-yloxy)phenyl]-(4-isopropylphenyl)-amine]
324	COc1cc2c(Oc3ccc(Nc4ccc(C(C)(C)C)cc4)cc3)ccnc2cc1OCCCN1CCCCCC1 [Compound 54, {4-[7-(3-Azepan-1-ylpropoxy)-6-methoxyquinolin-4-yloxyl]-phenyl}-(4-tert-butylphenyl)amine]
29.8	COc1cc2c(Oc3ccc(NC(=O)NCCC(C)(C)C)cc3)ccnc2cc1OCCNC(C)CO (stereo not drawn) [Compound 361, 1-(3,3-Dimethyl-butyl)-3-(4-{7-[2-(2-hydroxy-1-methyl-ethylamino)-ethoxy]-6-methoxy-quinolin-4-yloxy}-phenyl)-urea]
17.4	COc1cc2c(Oc3ccc(NC(=O)NCCC(C)(C)C)c(Cl)c3)ccnc2cc1OCC(O)CN1CCCCC1 (stereo not drawn) [Compound 193, 1-{2-Chloro-4-[7-(2-hydroxy-3-piperidin-1-yl-propoxy)-6-methoxy-quinolin-4-yloxy]-phenyl}-3-(3,3-dimethyl-butyl)-urea]
654	COc1cc2c(Oc3ccc(NC(=O)NCCC(C)(C)C)cc3)ccnc2cc1OCCCBr [Compound 147, 1-{4-[7-(3-Bromo-propoxy)-6-methoxy-quinolin-4-yloxy]-phenyl}-3-(3,3-dimethyl-butyl)-urea]
303	COc1cc2c(Oc3ccc(Nc4ccc(C(C)(C)C)cc4)cc3F)ccnc2cc1OCCCN1CCC(CO)CC1 [Compound 270, [1-(3-{4-[4-(4-Tert-butyl-phenylamino)-2-fluoro-phenoxy]-6-methoxy-quinolin-7-yloxy}-propyl)-piperidin-4-yl]-methanol]
186	COc1cc2c(Oc3ccc(Nc4ccc(C(C)(C)C)cc4)cc3)ccnc2cc1OCCN(C)CCO [Compound 348, 2-[(2-{4-[4-(4-Tert-butyl-phenylamino)-phenoxy]-6-methoxy-quinolin-7-yloxy}-ethyl)-methyl-amino]-ethanol hydrochloride]
3260	COc1cc2nccc(Oc3ccc(Oc4ccc(C(C)(C)C)cc4)cc3)c2cc1OC [Compound 30, 4-[4-(4-Tert-butylphenoxy)phenoxy]-6,7-dimethoxyquinoline]
27.8	COc1cc2nccc(Oc3ccc(NC(=O)NCCC(C)(C)C)cc3F)c2cc1OC [Compound 102, 1-[4-(6,7-Dimethoxy-quinolin-4-yloxy)-3-fluorophenyl]-3-(3,3-dimethyl-butyl)-urea]
1130	COc1cc2c(Oc3ccc(Nc4ccc(C(C)(C)C)cc4)c(Cl)c3)ccnc2cc1OCCCN1CCC(O)CC1 [Compound 276, 1-(3-{4-[4-(4-Tert-butyl-phenylamino)-3-chloro-phenoxy]-6-methoxy-quinolin-7-yloxy}-propyl)-piperidin-4-ol]
< 10	COc1cc2c(Oc3ccc(NC(=O)NCCC(C)(C)C)c(Cl)c3)ccnc2cc1OCCN1CCN(C)CC1 [Compound 115, 1-(2-Chloro-4-{6-methoxy-7-[2-(4-methyl-piperazin-1-yl)-ethoxy]-quinolin-4-yloxy}-phenyl)-3-(3,3-dimethyl-butyl)-urea]

Compound	IC50 [nM]
C=C[C@H]1CN2CCC1C[C@@H]2COc1cc2nccc(Oc3ccc(Nc4ccc(C(C)(C)C)cc4)cc3)c2cc1OC (stereo in doubt) [Compound 57, (4-Tert-butylphenyl)-{4-[6-methoxy-7-(5-vinyl-1-azabicyclo-[2.2.2]oct-2-ylmethoxy)quinolin-4-yloxy]phenyl}amine]	3830
COc1cc2c(Oc3ccc(NC(=O)NCCC(C)(C)C)cc3)ccnc2cc1OCCCCN1CCN(C)CC1 [Compound 159, 1-(3,3-Dimethyl-butyl)-3-(4-{6-methoxy-7-[4-(4-methyl-piperazin-1-yl)-butoxy]-quinolin-4-yloxy}-phenyl)-urea hydrochloride]	26.2
COc1cc2nccc(Oc3ccc(NC(=O)NCCC(C)(C)C)cc3)c2cc1OCCCCN(C)C [Compound 228, 1-{4-[6-(4-Dimethylamino-butoxy)-7-methoxy-quinolin-4-yloxy]-phenyl}-3-(3,3-dimethyl-butyl)-urea]	38.5
